# Test results taken from article PMC12549532, “The complete λ-carrageenan depolymerization cascade from a marine Pseudoalteromonad revealed by structural analysis of the enzymes” (The Journal of Biological Chemistry, 2025).
# Substitutions are numbered along the chain they refer to.
# What was measured:
# GH110A [1] = molecular target: T1, GH110A (Pseudoalteromonas distincta, UniProt Z9OJ40UL04); assay: X-ray crystal structure, soaked; type: binding; conditions: -1 subsite
# T1 construct: without predicted signal peptide; pET28a N-terminal His-tag, cut with thrombin for crystals; E. coli host
# T1 sequence (Z9OJ40UL04 24-600): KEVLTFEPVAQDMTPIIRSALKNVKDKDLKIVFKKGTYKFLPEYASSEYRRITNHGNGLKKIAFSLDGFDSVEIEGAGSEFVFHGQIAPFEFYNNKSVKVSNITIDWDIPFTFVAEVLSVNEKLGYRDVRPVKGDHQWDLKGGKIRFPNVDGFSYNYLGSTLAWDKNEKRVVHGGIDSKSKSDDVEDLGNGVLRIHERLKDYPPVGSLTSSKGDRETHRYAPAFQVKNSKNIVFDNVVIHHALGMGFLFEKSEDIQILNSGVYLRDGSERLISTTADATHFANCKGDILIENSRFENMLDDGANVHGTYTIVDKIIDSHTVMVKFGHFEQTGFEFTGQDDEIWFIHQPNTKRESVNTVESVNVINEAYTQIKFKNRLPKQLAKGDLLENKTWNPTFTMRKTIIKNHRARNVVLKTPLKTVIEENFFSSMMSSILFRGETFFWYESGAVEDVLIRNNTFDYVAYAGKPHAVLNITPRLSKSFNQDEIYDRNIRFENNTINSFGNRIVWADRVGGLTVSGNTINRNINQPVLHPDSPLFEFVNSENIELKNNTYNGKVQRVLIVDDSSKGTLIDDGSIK
# GH2 [2] = molecular target: T2, GH2 (Pseudoalteromonas distincta, UniProt Z9L5V2N5Y9); assay: X-ray crystal structure, soaked; type: binding; set-up: without predicted signal peptide; pET28a N-terminal His-tag, cut with thrombin for crystals; E. coli Tuner (DE3); conditions: inhibitor in -1 subsite, capping loop closed
# T2 sequence (Z9L5V2N5Y9 24-826): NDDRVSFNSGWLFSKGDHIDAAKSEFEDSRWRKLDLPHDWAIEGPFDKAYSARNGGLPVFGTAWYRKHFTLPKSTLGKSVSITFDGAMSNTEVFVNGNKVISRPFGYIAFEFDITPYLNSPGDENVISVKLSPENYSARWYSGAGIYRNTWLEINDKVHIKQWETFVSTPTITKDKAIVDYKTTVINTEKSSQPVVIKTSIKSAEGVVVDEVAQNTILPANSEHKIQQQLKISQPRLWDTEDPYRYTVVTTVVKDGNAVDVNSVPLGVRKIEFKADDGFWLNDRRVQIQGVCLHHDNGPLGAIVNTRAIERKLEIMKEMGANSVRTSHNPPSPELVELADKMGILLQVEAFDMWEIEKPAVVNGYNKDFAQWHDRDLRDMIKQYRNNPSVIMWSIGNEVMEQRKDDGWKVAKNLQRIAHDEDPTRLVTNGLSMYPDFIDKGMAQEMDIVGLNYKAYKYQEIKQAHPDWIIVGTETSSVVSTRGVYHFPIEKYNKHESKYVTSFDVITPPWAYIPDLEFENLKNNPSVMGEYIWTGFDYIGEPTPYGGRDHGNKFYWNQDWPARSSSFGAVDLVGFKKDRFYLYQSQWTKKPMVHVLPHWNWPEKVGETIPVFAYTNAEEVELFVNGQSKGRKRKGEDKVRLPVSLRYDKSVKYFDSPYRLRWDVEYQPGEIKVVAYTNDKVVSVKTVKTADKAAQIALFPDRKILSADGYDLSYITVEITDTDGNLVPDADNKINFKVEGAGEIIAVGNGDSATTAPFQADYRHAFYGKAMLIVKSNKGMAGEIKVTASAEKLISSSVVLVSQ
# GH2 [3] = molecular target: T2, GH2; assay: chromogenic activity assay (data not shown)
# GH110A [4] = molecular target: T3, GH110A (Pseudoalteromonas distincta, UniProt Z9OJ40UL04, D324N, form not given); assay: X-ray crystal structure, soaked; type: binding; conditions: inactive mutant; trisaccharide G6S in -1 subsite modelled, partial occupancy in +1 and +2
# T3 construct: without predicted signal peptide; pET28a N-terminal His-tag, cut with thrombin for crystals; E. coli host
# T3 sequence (Z9OJ40UL04 24-600 D324N): T1 sequence (Z9OJ40UL04 24-600) with D301N
# S1_8B [5] = molecular target: T4, S1_8B (Pseudoalteromonas distincta, UniProt Z9FD83UQX5, S94C, form not given); assay: preparative desulfation, product seen in crystal complexes; type: biochemical; conditions: 2-O-desulfation of the non-reducing end
# T4 construct: without predicted signal peptide; pET28a N-terminal His-tag, cut with thrombin for crystals; E. coli BL21 (DE3) Star
# T4 sequence (Z9FD83UQX5 24-541 S94C): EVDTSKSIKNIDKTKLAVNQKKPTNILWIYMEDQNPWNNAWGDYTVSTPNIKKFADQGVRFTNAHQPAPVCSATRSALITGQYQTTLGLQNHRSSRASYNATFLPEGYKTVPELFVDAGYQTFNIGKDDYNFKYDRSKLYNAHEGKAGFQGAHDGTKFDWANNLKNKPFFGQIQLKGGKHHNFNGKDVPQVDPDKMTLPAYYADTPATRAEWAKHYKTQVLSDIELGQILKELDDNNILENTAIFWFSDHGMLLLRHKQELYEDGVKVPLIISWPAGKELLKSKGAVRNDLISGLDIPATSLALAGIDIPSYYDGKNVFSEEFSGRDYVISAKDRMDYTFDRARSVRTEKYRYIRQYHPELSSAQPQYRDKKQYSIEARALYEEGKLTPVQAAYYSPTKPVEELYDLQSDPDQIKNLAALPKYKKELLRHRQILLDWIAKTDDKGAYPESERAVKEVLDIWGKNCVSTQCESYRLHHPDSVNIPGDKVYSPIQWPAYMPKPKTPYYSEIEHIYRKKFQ
# S1_8B [6] = molecular target: T5, S1_8B (Pseudoalteromonas distincta, UniProt Z9FD83UQX5); assay: X-ray crystal structure, soaked; type: binding; conditions: inactive mutant (printed C84S); 2.1 Å; modelled as fully sulfated Hex4S6
# T5 construct: without predicted signal peptide; pET28a N-terminal His-tag, cut with thrombin for crystals; E. coli BL21 (DE3) Star
# T5 sequence (Z9FD83UQX5 24-541): T4 sequence (Z9FD83UQX5 24-541 S94C) with C71S
structure (smiles),measurement,setting,value
O=S(=O)(O)OC[C@H]1OC(O)[C@H](O)[C@@H](O)[C@H]1O (stereo partly drawn) [G6S],"X-ray crystal structure, soaked",GH110A [1],We determined the structure of GH110A in complex with the monosaccharide G6S
"OC[C@H]1CNC[C@@H](O)[C@H]1O [GIF, galactoisofagomine]","X-ray crystal structure, soaked",GH2 [2],The structure of GH2 in complex with the inhibitor galactoisofagomine (GIF)
"O=[N+]([O-])c1ccc(O[C@@H]2O[C@H](CO)[C@H](O)[C@H](O)[C@H]2O)cc1 [pNP-β-Gal, pNP-β-D-galactopyranoside]",chromogenic activity assay (data not shown),GH2 [3],GH2 was active on pNP-β-D-galactopyranoside (pNP-β-Gal; not shown)
O=S(=O)(O)OC[C@H]1O[C@H](O[C@H]2[C@@H](O)[C@@H](CO)O[C@@H](O[C@@H]3[C@H](O)[C@@H](OS(=O)(=O)O)[C@@H](O[C@H]4[C@@H](O)[C@@H](CO)OC(O)[C@@H]4OS(=O)(=O)O)O[C@@H]3COS(=O)(=O)O)[C@@H]2OS(=O)(=O)O)[C@H](O)[C@@H](O)[C@H]1O (stereo partly drawn) [λ-NC4 pre-treated with S1_8B],"X-ray crystal structure, soaked",GH110A [4],determining its structure in complex with λ−NC4 that was pre-treated with S1_8B
"O=S(=O)(O)OC[C@H]1O[C@H](O[C@H]2[C@@H](O)[C@@H](CO)O[C@@H](O[C@@H]3[C@H](O)[C@@H](OS(=O)(=O)O)[C@@H](O[C@H]4[C@@H](O)[C@@H](CO)OC(O)[C@@H]4OS(=O)(=O)O)O[C@@H]3COS(=O)(=O)O)[C@@H]2OS(=O)(=O)O)[C@H](OS(=O)(=O)O)[C@@H](O)[C@H]1O (stereo partly drawn) [λ-NC4, λ-neocarratetraose]","preparative desulfation, product seen in crystal complexes",S1_8B [5],pretreated with S1_8B to convert the non-reducing end residue to G6S
same,"X-ray crystal structure, soaked",S1_8B [6],"We were able to model both tetrasaccharides as fully sulfated λ−NC4 (i.e., Hex4S6)"
